Results: patent publication US20240207258A1, “HETEROCYCLIC PDK1 INHIBITORS FOR USE TO TREAT CANCER” (Viracta Therapeutics, Inc., priority 2015, published 2024)

Assays:
[1] = target: T1, Full-length phosphorylated PDK1 (Homo sapiens, UniProt O15530); assay: FRET-based PIF-tide binding assay; conditions: 10 nM compound where stated, FIG. 13D
T1 sequence (O15530 1-556): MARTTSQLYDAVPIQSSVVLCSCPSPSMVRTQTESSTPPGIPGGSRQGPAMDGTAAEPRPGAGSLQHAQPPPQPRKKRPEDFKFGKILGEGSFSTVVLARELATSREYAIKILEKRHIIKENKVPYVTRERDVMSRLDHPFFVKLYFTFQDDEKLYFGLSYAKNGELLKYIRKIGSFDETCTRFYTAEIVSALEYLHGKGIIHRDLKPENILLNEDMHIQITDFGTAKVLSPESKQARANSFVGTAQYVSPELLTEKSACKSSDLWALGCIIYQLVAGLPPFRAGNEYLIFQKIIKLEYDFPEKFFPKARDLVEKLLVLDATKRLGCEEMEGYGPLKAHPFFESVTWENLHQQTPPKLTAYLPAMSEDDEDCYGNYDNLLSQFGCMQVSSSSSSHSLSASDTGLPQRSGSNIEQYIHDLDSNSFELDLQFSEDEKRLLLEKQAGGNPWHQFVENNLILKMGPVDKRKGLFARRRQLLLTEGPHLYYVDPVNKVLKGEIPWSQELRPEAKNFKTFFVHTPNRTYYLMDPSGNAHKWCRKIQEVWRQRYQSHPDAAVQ

Molm-13 = assay: MTS cell proliferation assay, Molm-13; format: cell-based; conditions: Homo sapiens; Molm-13, 72 hr
Procedure: (§1) Cell proliferation was measured using the CellTiter 96 Aqueous Non-Radioactive Cell Proliferation Assay (Promega). The CellTiter 96® AQueous Assay is composed of solutions of a tetrazolium compound [3-(4,5-dimethylthiazol-2-yl)-5-(3-carboxymethoxyphenyl)-2-(4-sulfophenyl)-2H-tetrazolium, inner salt; MTS] and an electron coupling reagent (phenazine methosulfate) PMS. MTS is bioreduced by cells into a formazan product that is soluble in tissue culture medium. The absorbance of the formazan product at 490 nm can be measured directly from assay plates without additional processing. The quantity of formazan product as measured by the amount of 490 nm absorbance is directly proportional to the number of living cells in culture. Cells were seeded into 96-well or 384-well clear plates in a volume of 200 μL (96-well) or 50 μL (384-well) at optimized densities ranging from 1,000 to 40,000 cells per well for 96-well plates or 1,200 to 25,000 cells per well for 384-well plates depending on cell-line. After 4-6 hr recovery, serially diluted compounds in DMSO were added to the cells using (0.1% v/v final DMSO concentration). Cells were then grown at 37° C. in a humidified incubator with 5% CO2 for 72 hr. A 20:1 [3-(4,5-dimethylthiazol-2-yl)-5-(3-carboxymethoxyphenyl)-2-(4-sulfophenyl)-2H-tetrazolium](MTS):phenazine methosulfate (PMS) solution in DPBS was made immediately before use, added to each well, and cells were incubated for 1.5 hr at 37° C. The absorbance at 490 nm was then measured using a platereader. Absorbance values were normalized as percent of control (cells incubated in the presence of 0.1% v/v DMSO). Sigmoidal dose-response curves were plotted using log(inhibitor) vs. response—Variable slope (four parameters) model with a top value constrained to 100% (GraphPad Prism version 6.00 for Windows, GraphPad Software, La Jolla California USA). […] Curves for compounds that reached a plateau were matched exactly to the measurement points. […] To determine potential of compounds of the invention to affect viability of hematological cancers, cell lines representing various tumor types were selected and tested. Human cell lines tested were: MOLM-13 (acute myeloid leukemia (AML)), MV4-11 (AML), U-2932 (ABC-diffuse large B cell lymphoma), U-937 (histiocytic lymphoma), U-266 (multiple myeloma), RPMI-8226 (multiple myeloma), CMK (megakaryoblastic cell line), SU-DHL-4 (GCB-diffuse large B cell lymphoma), KG1 (AML), Mec-1 (chronic B-cell leukemia), MOLM-16 (AML), Jeko (B-cell lymphoma), WSU-DLCL2 (B-cell lymphoma), JJN3 (plasma cell leukemia), SU-DHL-6 (GCB-diffuse large B cell lymphoma), and Z-138 (mantle cell lymphoma). In addition, two murine cell lines were tested: A20 […].

A20 = assay: MTS cell proliferation assay, A20; format: cell-based, murine; conditions: Mus musculus; A20, 72 hr
Procedure: as §1

SU-DHL-6 = assay: MTS cell proliferation assay, SU-DHL-6; format: cell-based; conditions: Homo sapiens; SU-DHL-6, 72 hr
Procedure: (§2) Cell proliferation was measured using the CellTiter 96 Aqueous Non-Radioactive Cell Proliferation Assay (Promega). The CellTiter 96® AQueous Assay is composed of solutions of a tetrazolium compound [3-(4,5-dimethylthiazol-2-yl)-5-(3-carboxymethoxyphenyl)-2-(4-sulfophenyl)-2H-tetrazolium, inner salt; MTS] and an electron coupling reagent (phenazine methosulfate) PMS. MTS is bioreduced by cells into a formazan product that is soluble in tissue culture medium. The absorbance of the formazan product at 490 nm can be measured directly from assay plates without additional processing. The quantity of formazan product as measured by the amount of 490 nm absorbance is directly proportional to the number of living cells in culture. Cells were seeded into 96-well or 384-well clear plates in a volume of 200 μL (96-well) or 50 μL (384-well) at optimized densities ranging from 1,000 to 40,000 cells per well for 96-well plates or 1,200 to 25,000 cells per well for 384-well plates depending on cell-line. After 4-6 hr recovery, serially diluted compounds in DMSO were added to the cells using (0.1% v/v final DMSO concentration). Cells were then grown at 37° C. in a humidified incubator with 5% CO2 for 72 hr. A 20:1 [3-(4,5-dimethylthiazol-2-yl)-5-(3-carboxymethoxyphenyl)-2-(4-sulfophenyl)-2H-tetrazolium](MTS):phenazine methosulfate (PMS) solution in DPBS was made immediately before use, added to each well, and cells were incubated for 1.5 hr at 37° C. The absorbance at 490 nm was then measured using a platereader. Absorbance values were normalized as percent of control (cells incubated in the presence of 0.1% v/v DMSO). Sigmoidal dose-response curves were plotted using log(inhibitor) vs. response—Variable slope (four parameters) model with a top value constrained to 100% (GraphPad Prism version 6.00 for Windows, GraphPad Software, La Jolla California USA). […] Curves for compounds that reached a plateau were matched exactly to the measurement points. […]

RPMI-8226 = assay: MTS cell proliferation assay, RPMI-8226; format: cell-based; conditions: Homo sapiens; RPMI-8226, 72 hr
Procedure: as §1

MOLM-16 = assay: MTS cell proliferation assay, MOLM-16; format: cell-based; conditions: Homo sapiens, MOLM16; MOLM-16, 72 hr
Procedure: as §2

SU-DHL-4 = assay: MTS cell proliferation assay, SU-DHL-4; format: cell-based; conditions: Homo sapiens; SU-DHL-4, 72 hr
Procedure: as §2

SMILES	FRET between PDK1 and PIF-tide [1]	EC50 (Molm-13)	EC50 (A20)	EC50 (SU-DHL-6)	EC50 (RPMI-8226)	EC50 (MOLM-16)	EC50 (SU-DHL-4)
C[C@H](NC(=O)c1nc(C#N)cnc1NCc1ccc(-c2cnc3[nH]nc(N)c3n2)cc1)c1ccc(F)c(F)c1 [Compound 1, 3-[4-(3-Amino-1H-pyrazolo[3,4-b]pyrazin-5-yl)-benzylamino]-6-cyano-pyrazine-2-carboxylic acid [1-(3,4-difluoro-phenyl)-ethyl]-amide]	near complete inhibition	6 nM	156 nM	572 nM	174 nM	248 nM	313 nM
CNc1n[nH]c2ncc(-c3ccc(CNc4ncc(C#N)nc4C(=O)N[C@@H](C)c4ccc(F)c(F)c4)cc3)cc12 [Compound 2, 6-Cyano-3-[4-(3-methylamino-1H-pyrazolo[3,4-b]pyridin-5-yl)-benzylamino]-pyrazine-2-carboxylic acid [1-(3,4-difluoro-phenyl)-ethyl]-amide]	near complete inhibition	3 nM	114 nM	476 nM	163 nM	227 nM	186 nM
